Laboratory results as given in patent publication US20050197350A1, “Novel quinoline, tetrahydroquinazoline, and pyrimidine derivatives and methods of treatment related to the use thereof” (TAISHO PHARMACEUTICAL CO., LTD., priority 2003, published 2005).
Where a name gives a salt, the structure may show the parent alone.

Molecular target: MCH receptor (Homo sapiens, UniProt Q99705)
Experiment: High throughput functional screening FLIPR/FDSS6000 (intracellular Ca2+ evoked by MCH)
Assay type: cell-based
Conditions: FLIPR/FDSS, antagonist activity vs 50 nM MCH; class by percent of control at 10^−7 M or IC50; table after the classification; read-out: class
Method in brief: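 For antagonist testing, compound-treated cells (30 min, 37 °C) were stimulated with 50 nM MCH and intracellular Ca2+ followed by Fluo4 fluorescence on FLIPR/FDSS6000. Receptor was a constitutively active, non-endogenous MCH receptor; dye loading 4 μM Fluo4-AM, 1 h, 37 °C.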

Row | IC50 | SMILES
1 | 50 to 200 nM | CN(C)c1cc(N[C@H]2CC[C@@H](CNC(=O)Nc3cccc(Cl)c3Cl)CC2)nc2ccccc12 [Example 3191, 1-(2,3-Dichloro-phenyl)-3-[cis-4-(4-dimethylamino-quinolin-2-ylamino)-cyclohexylmethyl]-urea hydrochloride]
2 | < 50 nM | CN(C)c1nc(N[C@H]2CC[C@@H](NC(=O)c3ccc(F)c(F)c3)CC2)nc2c1CCCC2 [Example 3192, N-[cis-4-(4-dimethylamino-5,6,7,8-tetrahydro-quinazolin-2-ylamino)-cyclohexyl]-3,4-difluoro-benzamide hydrochloride]
3 | < 50 nM | CN(C)c1nc(N[C@H]2CC[C@@H](NC(=O)c3csc([N+](=O)[O-])c3)CC2)nc2c1CCCC2 [Example 3193, 5-Nitro-thiophene-3-carboxylic acid [cis-4-(4-dimethylamino-5,6,7,8-tetrahydro-quinazolin-2-ylamino)-cyclohexyl]-amide hydrochloride]
4 | < 50 nM | CN(C)c1nc(N[C@H]2CC[C@@H](NC(=O)c3cc([N+](=O)[O-])cn3C)CC2)nc2c1CCCC2 [Example 3194, 1-Methyl-4-nitro-1H-pyrrole-2-carboxylic acid [cis-4-(4-dimethylamino-5,6,7,8-tetrahydro-quinazolin-2-ylamino)-cyclohexyl]-amide hydrochloride]
5 | 50 to 200 nM | CN(C)c1nc(N[C@H]2CC[C@@H](CNC(=O)c3ccc(F)c(F)c3)CC2)nc2c1CCCC2 [Example 3195, N-[cis-4-(4-Dimethylamino-5,6,7,8-tetrahydro-quinazolin-2-ylamino)-cyclohexylmethyl]-3,4-difluoro-benzamide hydrochloride]
6 | 50 to 200 nM | CN(C)c1nc(N[C@H]2CC[C@@H](CNC(=O)Nc3cccc(Cl)c3Cl)CC2)nc2c1CCCC2 [Example 3196, 1-(2,3-Dichloro-phenyl)-3-[cis-4-(4-dimethylamino-5,6,7,8-tetrahydro-quinazolin-2-ylamino)-cyclohexylmethyl]-urea hydrochloride]
7 | 50 to 200 nM | CN(C)c1ccnc(N[C@H]2CC[C@@H](NC(=O)c3ccc(F)c(F)c3)CC2)n1 [Example 3197, N-[cis-4-(4-Dimethylamino-pyrimidin-2-ylamino)-cyclohexyl]-3,4-difluoro-benzamide hydrochloride]
8 | < 50 nM | CN(C)c1ccnc(N[C@H]2CC[C@@H](NC(=O)c3csc([N+](=O)[O-])c3)CC2)n1 [Example 3198, 5-Nitro-thiophene-3-carboxylic acid [cis-4-(4-dimethylamino-pyrimidine-2-ylamino)-cyclohexyl]-amide hydrochloride]
9 | < 50 nM | CN(C)c1ccnc(N[C@H]2CC[C@@H](NC(=O)c3ccc(-c4ccc(Cl)cc4)o3)CC2)n1 [Example 3199, 5-(4-Chloro-phenyl)-furan-2-carboxylic acid [cis-4-(4-dimethylamino-pyrimidin-2-ylamino)-cyclohexyl]-amide hydrochloride]
10 | > 200 nM | CN(C)c1ccnc(N[C@H]2CC[C@@H](NC(=O)c3ccc(-c4ccc(F)cc4)cc3)CC2)n1 [Example 3200, 4′-Fluoro-biphenyl-4-carboxylic acid [cis-4-(4-dimethylamino-pyrimidin-2-ylamino)-cyclohexyl]-amide hydrochloride]
11 | < 50 nM | CN(C)c1ccnc(N[C@H]2CC[C@@H](NC(=O)c3cccnc3Oc3ccc(F)cc3)CC2)n1 [Example 3201, N-[cis-4-(4-Dimethylamino-pyrimidin-2-ylamino)-cyclohexyl]-2-(4-fluoro-phenoxy)-nicotinamide hydrochloride]
12 | < 50 nM | CCN(CC(=O)N[C@H]1CC[C@@H](Nc2nccc(N(C)C)n2)CC1)c1ccccc1 [Example 3202, N-[cis-4-(4-Dimethylamino-pyrimidin-2-ylamino)-cyclohexyl]-C-(ethyl-phenyl-amino)-acetamide dihydrochloride]
